One data set concerns PC-3. Kind of data set: Antiproliferative activity against human PC3 cells after 4 days by CellTiter-Glo assay. It counts as functional, cell-based. Conditions: PC-3, 96 h. In general terms: In ATP-based viability assays light output follows the ATP content of the culture.
For data set [1], the target named is T1, Phosphatidylinositol 4,5-bisphosphate 3-kinase catalytic subunit alpha isoform (Homo sapiens, UniProt P42336). Kind of data set: Inhibition of recombinant PI3Kalpha (unknown origin)-mediated 3,4,5-inositoltriphosphate formation after 30 mins by TAMRA-PIP3-based competitive fluorescence polarization assay. In general terms: Polarisation of emitted light reports the rotation of a fluorescent probe.

Data set [2] has as its target T1, Phosphatidylinositol 4,5-bisphosphate 3-kinase catalytic subunit alpha isoform.
Description: Inhibition of PI3Kalpha-mediated AKT Ser 473 phosphorylation in human PC3 cells
Data set [3] in a line: Clearance in human liver microsomes. It counts as ADME, Microsome.
Another data set has as its system MCF7. Kind of data set: Antiproliferative activity against human MCF7 cells expressing neo-HER2 after 3 days by CellTiter-Glo assay. It is filed as functional, cell-based. Conditions: MCF7, 72 h.
Data set [4] is described as follows: Clearance in rat liver microsomes. It is filed as ADME, Microsome. A general note: Liver microsomes are a subcellular fraction often used to study metabolism.
The nature of data set [5]: Apparent permeability from apical to basal side of MDCK cells. It counts as ADME, cell-based, Canis lupus familiaris. Conditions: dog.
Data set [6] can be described thus: Kinetic solubility of the compound by dry down method. The following applies: read-out: Kinetic_solubility. It is filed as physicochemical.
Data set [7] can be described thus: Plasma clearance in Sprague-Dawley rat at 1 mg/kg, iv. It is filed as ADME, organism-based. The arrangement: dose 1 mg/kg, route intravenous.
In data set [8] the test system is Mus musculus. Kind of data set: Unbound AUC in nude mouse at 50 mg/kg. It counts as ADME, organism-based. The arrangement: dose 50 mg/kg. Conditions: in vivo.
For data set [9], the system named is Mus musculus. Description: Unbound AUC in nude mouse at 25 mg/kg. It counts as ADME, organism-based. Set-up: dose 25 mg/kg. The following applies: in vivo.
Data set [10] can be described thus: Thermodynamic solubility of the compound at pH 7.4. It is filed as physicochemical. The following applies: buffer, read-out: Therm_solubility.
The subject of data set [11] is Mus musculus. Description: Unbound AUC in nude mouse at 100 mg/kg. It is filed as ADME, organism-based. The arrangement: dose 100 mg/kg. The following applies: in vivo.

SMILES strings stand for the structures. In brackets after ≈: the same amount, converted by molar mass.

T1 sequence (P42336 whole entry, canonical isoform): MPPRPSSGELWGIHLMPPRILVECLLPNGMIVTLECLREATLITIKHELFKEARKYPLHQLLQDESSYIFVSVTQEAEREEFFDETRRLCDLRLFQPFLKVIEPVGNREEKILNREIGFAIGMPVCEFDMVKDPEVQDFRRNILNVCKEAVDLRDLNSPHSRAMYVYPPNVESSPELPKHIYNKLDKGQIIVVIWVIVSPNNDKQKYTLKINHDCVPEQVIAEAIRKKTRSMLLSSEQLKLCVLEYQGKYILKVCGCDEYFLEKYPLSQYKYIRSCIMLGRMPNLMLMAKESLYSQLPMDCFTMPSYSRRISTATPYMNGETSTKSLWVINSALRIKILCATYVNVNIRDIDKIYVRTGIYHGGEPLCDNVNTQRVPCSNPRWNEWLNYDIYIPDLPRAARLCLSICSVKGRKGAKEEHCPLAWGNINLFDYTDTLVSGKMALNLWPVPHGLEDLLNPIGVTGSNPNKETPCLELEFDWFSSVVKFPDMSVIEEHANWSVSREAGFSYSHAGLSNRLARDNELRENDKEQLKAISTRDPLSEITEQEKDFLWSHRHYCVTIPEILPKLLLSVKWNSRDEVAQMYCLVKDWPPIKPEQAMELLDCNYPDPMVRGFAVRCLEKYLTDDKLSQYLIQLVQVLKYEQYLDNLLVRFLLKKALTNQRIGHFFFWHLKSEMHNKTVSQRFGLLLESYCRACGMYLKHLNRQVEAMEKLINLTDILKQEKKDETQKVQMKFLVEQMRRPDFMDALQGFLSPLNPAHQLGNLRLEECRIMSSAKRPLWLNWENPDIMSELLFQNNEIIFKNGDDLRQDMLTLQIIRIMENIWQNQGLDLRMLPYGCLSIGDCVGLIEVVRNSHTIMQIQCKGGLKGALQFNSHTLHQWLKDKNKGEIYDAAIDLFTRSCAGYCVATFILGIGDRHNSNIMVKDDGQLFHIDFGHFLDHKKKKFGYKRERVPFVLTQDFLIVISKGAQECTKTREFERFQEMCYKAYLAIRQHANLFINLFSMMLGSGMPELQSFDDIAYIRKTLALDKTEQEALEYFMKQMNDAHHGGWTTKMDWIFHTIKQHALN

Take `CN(C(=O)c1cc2c(s1)-c1ccc(C(N)=O)cc1OCC2)c1ccccc1Cl`: the IC50 (usually the concentration that inhibits the measured activity by half) is above 3500 nM in the data set on PC-3, 1.5 nM in data set [1], 100 nM in [2] and above 4100 nM in the data set with MCF7. Moreover, the CLhep predicted was 18 mL/min/kg in data set [3] and 43 mL/min/kg in [4]. In addition, the Papp A→B (usually how fast a substance crosses the layer from the apical side) in data set [5] is 2.1 ×10⁻⁶ cm/s.

For `CN(C(=O)c1cc2c(s1)-c1ccccc1OCC2)C1CCCCC1`, in data set [1], the IC50 came to 885 nM.

With `CC(C)N(C)C(=O)c1cc2c(s1)-c1ccccc1OCC2`, the IC50 in data set [1] is above 2000 nM.

Take `Nc1nc(-c2cc3c(s2)-c2ccccc2OCC3)c(-c2ccccc2Cl)s1`: the solubility kinetic in [6] is 4 µM (≈ 1.64 µg/mL). Further, the IC50 in [1] is below 0.5 nM; in data set [2], 23 nM.

Turning to `CC(=O)Nc1nc(-c2cc3c(s2)-c2ncccc2OCC3)c(-c2ccccc2Cl)[nH]1`, the solubility kinetic in [6] was 41 µM (≈ 17.9 µg/mL). Besides, the IC50 in data set [1] is below 1.4 nM; in data set [2], 36 nM.

Regarding `O=c1[nH]nc(-c2cc3c(s2)-c2ccccc2OCC3)n1-c1ccccc1Cl`, the IC50 in data set [1] stood at 1.2 nM; in [2], 20 nM.

As to `NC(=O)c1ccc2c(c1)OCCc1cc(-c3n[nH]c(=O)n3-c3ccccc3Cl)sc1-2`, the solubility kinetic in data set [6] amounted to 15 µM (≈ 6.58 µg/mL). For the same compound, the IC50 in data set [1] was below 0.5 nM; in data set [2], 20 nM.

Take `CC(C)n1ncnc1-c1cc2c(s1)-c1ccc(C(N)=O)cc1OCC2`: the solubility kinetic in data set [6] was above 200 µM. Moreover, the clearance (usually a measure of how efficiently the substance is removed, as volume per time) in data set [7] is 13 mL/min/kg. The fAUC with Mus musculus [8] was found to be 13.6 µM·h; in the data set with Mus musculus [9] it was 5.7 µM·h; with Mus musculus [11], 17.8 µM·h. In addition, the solubility thermodynamic in data set [10] turned out to be 53 µg/mL (≈ 150 µM). The CLhep predicted in [3] is 10 mL/min/kg; in data set [4] it was 29 mL/min/kg. The Papp A→B in data set [5] stood at 20 ×10⁻⁶ cm/s.

As for `CC(C)Cn1ncnc1-c1cc2c(s1)-c1ccc(C(N)=O)cc1OCC2`, the solubility kinetic in data set [6] is above 200 µM. For the same compound, the half-inhibitory concentration (IC50) in data set [1] stood at 4 nM; in data set [2], 279 nM. In [7], this compound returned a clearance of 112 mL/min/kg. Also, the CLhep predicted in data set [3] was 19 mL/min/kg; in data set [4], 49 mL/min/kg.

Take `NC(=O)c1ccc2c(c1)OCCc1cc(-c3ncnn3C3CCC3)sc1-2`: the solubility kinetic in [6] came to 37 µM (≈ 13.6 µg/mL). In addition, the IC50 is 8 nM in data set [1] and 563 nM in data set [2]. This compound yielded a clearance in data set [7] of 61 mL/min/kg. Also, the CLhep predicted is 19 mL/min/kg in data set [3] and 44 mL/min/kg in data set [4].

Turning to `NC(=O)c1ccc2c(c1)OCCc1cc(-c3ncnn3CCO)sc1-2`, the solubility kinetic in data set [6] is above 200 µM. Also, the half-inhibitory concentration (IC50) is 15 nM in [1] and above 1000 nM in data set [2]. Moreover, the CLhep predicted in data set [3] is 10 mL/min/kg; in [4], 25 mL/min/kg.

Turning to `CN(C)CCn1ncnc1-c1cc2c(s1)-c1ccc(C(N)=O)cc1OCC2`, the solubility kinetic in data set [6] was determined as 128 µM (≈ 49.1 µg/mL). Also, the IC50 in data set [1] came to 142 nM. The CLhep predicted in data set [3] is 14 mL/min/kg; in [4], 38 mL/min/kg.

As to `CC(C)(O)Cn1ncnc1-c1cc2c(s1)-c1ccc(C(N)=O)cc1OCC2`, the solubility kinetic in data set [6] is above 200 µM. Besides, the IC50 was determined as 4 nM in [1] and 481 nM in data set [2]. Besides, in data set [7], the clearance came out at 57 mL/min/kg. Moreover, the CLhep predicted in data set [3] is 11 mL/min/kg; in data set [4], 15 mL/min/kg.

For `NC(=O)c1ccc2c(c1)OCCc1cc(-c3ncnn3CC(F)(F)F)sc1-2`, the solubility kinetic in data set [6] was above 200 µM. Moreover, the 50% inhibitory concentration (IC50) was 7 nM in data set [1] and 487 nM in [2]. In data set [7], this compound yielded a clearance of 11 mL/min/kg. The CLhep predicted in data set [3] was 7 mL/min/kg; in data set [4], 12 mL/min/kg.

On to `CN(C(=O)c1cc2c(s1)-c1ccccc1OCC2)c1ccc(F)cc1F`, for which the results for the IC50 in data set [1] and in data set [2] were 52 nM and above 1000 nM, respectively.

For the compound `CN(C(=O)c1cc2c(s1)-c1ncccc1OCC2)c1ccccc1Cl`, the solubility kinetic in data set [6] came out at 41 µM (≈ 15.2 µg/mL). The figures for the half-maximal inhibitory concentration (IC50) in data set [1] and in data set [2] were 7 nM and above 1000 nM, respectively.

For `Clc1ccccc1-n1cnnc1-c1cc2c(s1)-c1ccccc1OCC2`, the solubility kinetic in data set [6] amounted to 15 µM (≈ 5.7 µg/mL). The half-inhibitory concentration (IC50) in data set [1] worked out at 7.3 nM; in [2], 74 nM.

Turning to `NC(=O)c1ccc2c(c1)OCCc1cc(-c3nncn3-c3ccccc3Cl)sc1-2`, the solubility kinetic in data set [6] came to 9 µM (≈ 3.81 µg/mL). Moreover, the IC50 in [1] was below 0.5 nM; in data set [2], 60 nM.

As to `NC(=O)c1ccc2c(c1)OCCc1cc(-c3nnnn3-c3ccccc3Cl)sc1-2`, the solubility kinetic in data set [6] was above 200 µM. In addition, the values for the IC50 in [1] and in data set [2] were below 0.5 nM and 42 nM, respectively.

As for `Clc1ccccc1-c1ocnc1-c1cc2c(s1)-c1ncccc1OCC2`, the solubility kinetic in data set [6] amounted to 41 µM (≈ 15.6 µg/mL). Besides, the results for the IC50 in data set [1] and in data set [2] were 12 nM and 250 nM, respectively.

Consider `Fc1ccc(-n2ncnc2-c2cc3c(s2)-c2ccccc2OCC3)c(F)c1`, for which the solubility kinetic in [6] came out at 4.1 µM (≈ 1.56 µg/mL). Besides, the values for the IC50 in data set [1] and in data set [2] were 1.2 nM and 110 nM, respectively.

Take `NC(=O)c1ccc2c(c1)OCCc1cc(-c3ncnn3-c3ccc(F)cc3F)sc1-2`: the concentration for half-maximal inhibition (IC50) is 180 nM with PC-3, below 0.5 nM in data set [1], 17 nM in data set [2] and 23 nM in the data set with MCF7. In addition, the solubility kinetic in data set [6] is above 200 µM. In data set [7], this compound had a clearance of 38 mL/min/kg. For the same compound, the fAUC in the data set with Mus musculus [8] was determined as 0.53 µM·h; with Mus musculus [9], 0.26 µM·h; in the data set with Mus musculus [11] it was 0.54 µM·h. In data set [10], the solubility thermodynamic is below 1 µg/mL. The figures for the CLhep predicted in data set [3] and in data set [4] were 7 mL/min/kg and 24 mL/min/kg, respectively. Besides, the Papp A→B in data set [5] was determined as 13 ×10⁻⁶ cm/s.

In the case of `NC(=O)c1ccc2c(c1)OCCc1cc(-c3n[nH]cc3-c3ccccc3Cl)sc1-2`, the solubility kinetic in data set [6] stood at 12 µM (≈ 5.06 µg/mL). Moreover, the IC50 was determined as 1 nM in [1] and 28 nM in [2].

The record behind these values is ChEMBL document CHEMBL2321704, “Cis-amide isosteric replacement in thienobenzoxepin inhibitors of PI3-kinase” (Bioorg Med Chem Lett, 2013).
